Values of other authors in US20250255927A1, “COMPOSITIONS AND METHODS FOR ALLEVIATING ADVERSE EFFECTS FROM RESPONSIBLE ALCOHOL CONSUMPTION” (Cheers Health, Inc., priority 2023, published 2025).

What was measured:
pain = conditions: 1 g of salicin
[1] = rat models

| time to reach the brain without any metabolic change [1] | SMILES | amount of aspirin with comparable pain relief effect (pain) |
| --- | --- | --- |
| – | OCc1ccccc1O[C@@H]1O[C@H](CO)[C@@H](O)[C@H](O)[C@H]1O [salicin] | ~620 mg |
| ≤ 30 min | CCNC(=O)CC[C@H](N)C(=O)O [L-Theanine] | – |
